Converted amounts (≈) assume the structure as drawn. Read-outs that look alike come from different tables or passages of the source.
Key:
[1] = tested on: viable cells of fecal suspension
[2] = tested on: M. morganii and P. pennerii isolates; test: microbe, parasite or virus in culture; type: cell-based
ethanol treated spores = test: Germination of ethanol treated spores with germinants, CFU on plate media; conditions: 2 ug/ml; plated on Sweet B or M2GSC media, single donor, FIG. 9

`CCO` [Ethanol, ethanol] was tested, and the “reduction of the number of viable cells” value [1] was “approximately 4 logs”.

`C[C@@H](O)[C@H]1C(=O)N2C(C(=O)O)=C(SCCN=CN)C[C@H]12` [imipenem] showed an MIC [2] of 4 to 8 µg/mL and an MIC ([2]; Morganella morganii) of 2 to 4 µg/mL (≈ 6.68 to 13.4 µM).

lysozyme was tested, and the “effect of addition to the plates on CFU, in words” value (ethanol treated spores) was “small effect”.
